Patent US20180230160A1, “2-AMINO-7A-PHENYL-3,4,4A,5,7,7A-HEXAHYDROFURO[3,4-B]PYRIDINES AS BACE1 INHIBITORS” (H. Lundbeck A/S, priority 2015, published 2018)
Like-named read-outs stand apart in the source and are kept apart here.

Legend:
[1] = test system: Aβ40 peptide; assay: Assessment of Aβ peptide levels in rat brain and plasma following BACE1 inhibition (Aβ40 ELISA); assay type: in vivo; settings: 3 hours post dose, vs vehicle
Protocol: Assessment of Aβ Peptide Levels in Rat Brain and Plasma Following BACE1 Inhibition. Animals.
(§1) Young adult Male Sprague Dawley rats of approximately 250 g weight were purchased from Charles River and received 0-30 mg/kg of vehicle (10% HP betaCD+1M MeSO4, pH 2.5) or test compounds (dissolved in vehicle) only by oral gavage (p.o). The compounds are dosed at a volume of 5 ml/kg. Cohorts of 5-10 animals were established for each treatment condition.
(§2) At T=180 minutes after initial dosing the animals were stunned and decapitated with a guillotine. Trunk-blood was sampled in EDTA coated tubes after decapitation of the animal. The blood was centrifuged at 2200G at 4° C. for 15 minutes and the plasma was collected and frozen at −80° C. The blood was aliquoted for Aβ ELISA and DMPK analysis. Immediately following sacrifice, the brain was extracted and split into 2 halves. The right hemibrains were snap frozen on dry ice and stored at −80° C. The left half was dissected; with the front forebrain taken for Aβ ELISA and the remainder used for DMPK analysis. These samples were also snap frozen on dry ice and stored at −80° C. until use for analysis.
The cortex samples were thawed slightly on wet ice before they were homogenized with a small volume dispersing instrument (T10 basic ULTRA-TURRAX®) which was set at speed 5 for approximately 5-7 sec. The tissue was processed in a 10 times volume of the weight, for example 100 mg of tissue was homogenized in 1000 μL of Homogenization buffer. Homogenization buffer: 50 ml Milli Q water+50 nM NaCl+0.2% Diethylamin (DEA)+1 tablet of Complete Protease inhibitor cocktail+1 nM 4-(2-aminoethyl) benzenesulfonyl fluoride hydrochloride irreversible serine protease inhibitor (AEBSF).
After homogenization 450 μL aliquots of the samples are collected into a 1.5 ml Eppendorf tube and placed on wet ice, 0.5% NP-40 (50 ul) was added to all samples and then they were incubated on ice for 30 min. After which all samples were sonicated using an Ultrasonic homogenizer with 20 kHz homogeneous sound (SONOPLUS HD2070, Bandelin Electronic) 10 pulse set at 12-13% power to extract all the Aβ species. The samples were then centrifuged (Ole Dich 157 MPRF Micro centrifuge) at 20000G for 20 minutes at 4° C. After centrifugation 285 μL of the supernatant was pipetted into 600 μL microtubes tubes and neutralized with 15 μL of 1M Tris-HCL buffer.
WAKO 294-62501 Human/Rat Abeta amyloid (40) kit was used for all ELISA analyses. 30 μL plasma samples or 30 μL of the cortex supernatants generated as described above were placed in 600 μL microtubes tubes on wet ice. To this 30 μL of 8M urea (AppliChem A1049, 9025) was added to generate a 2-fold dilution. Both plasma and cortex supernatants were incubated on ice for 30 min. Standard rows were prepared from the standard peptide stock provided in the kit and standard diluent containing 1.6M urea (200 μL 8M urea+800 μL of standard diluent) and 0.8M urea (400 μL 8M Urea+3600 μL Standard diluent). A serial 2-fold dilution of Aβ40 from 100 pmol/ml to 0 pmol/L was prepared for the assay.
After incubation with urea, all samples were further diluted by addition of 5 times standard diluent from the Kit. This was done by adding 240 μL Standard Diluent to 60 μL sample/urea mixture, which was then mixed well. 100 μL of each diluted sample was pipetted into designated wells of the ELISA plate in duplicates. The plate was then covered and incubated overnight at 4° C. The following day, the ELISA kit was brought to room temperature before use. The incubated plate was washed 5 times with the 20× washing solution diluted in Milli Q water. 100 μL HRP-conjugate was applied to each well, and the plate was covered and incubates at 4° C. for 1 hr. The wash was repeated again for 5 times. 100 μL 3,3′,5,5′-Tetramethylbenzidine (TMB) solution was applied to each well and the plate was covered and incubated in the dark at room temperature for 30 minutes. […]

[2] = Compound exposure in rat brain and plasma after oral dosing (DMPK analysis); assay type: in vivo; settings: male, Sprague Dawley, 3 hours post dose; for concentration at 3 h: read-out: Exp (exposure); for Kp at 3 h: brain/plasma, read-out: Brain/Plasma ratio
Protocol: as §1, §2
The results of the administration of representative Compounds of Examples 1, 2, 5, […], of brain and plasma samples collected at 3 hours post dose and then following exposures, as described above, are tabulated below.

[3] = test system: P-gp (MDR1); assay: MDCK-MDR1 assay (permeability, efflux ratio); assay type: in vitro ADME; settings: dog, Papp BA/Papp AB, 60-minute incubation
[4] = target: human BACE1 (Homo sapiens, UniProt P56817); assay: BACE1 efficacy assay (FRET-based, commercial BACE1 kit); assay type: biochemical; design: purchased Life Technologies P2985; settings: 10 μM test compound
Protocol: The efficacy assay was performed as a FRET-based assay using a commercially available BACE1 kit (Life Technologies, P2985). 2 μl test compound at 10 μM (final concentration) and 15 μl BACE1 enzyme from the kit (final concentration 3 nM) were preincubated for 15 minutes at room temperature before addition of 15 μl of substrate from the kit (250 nM final concentration) and incubated for additional 90 minutes at room temperature. The assay plate was subsequently read in a Pherastar (Ex540/Em590). The enzyme activity observed in presence of test compound were normalized to the enzyme activity observed in presence of buffer and 10 μM (final concentration) of the high affinity BACE1 reference inhibitor (S)-6-[3-Chloro-5-(5-prop-1-ynyl-pyridin-3-yl)-thiophen-2-yl]-2-imino-3,6-dimethyl-tetrahydropyrimidin-4-one, respectively. The efficacy of the test compounds was evaluated at 10 μM (final concentration) and defined as the percent inhibition of the enzyme activity using the equation % inhibition=100%−normalized enzyme activity in percent.

Sequence of human BACE1 (P56817 46-501): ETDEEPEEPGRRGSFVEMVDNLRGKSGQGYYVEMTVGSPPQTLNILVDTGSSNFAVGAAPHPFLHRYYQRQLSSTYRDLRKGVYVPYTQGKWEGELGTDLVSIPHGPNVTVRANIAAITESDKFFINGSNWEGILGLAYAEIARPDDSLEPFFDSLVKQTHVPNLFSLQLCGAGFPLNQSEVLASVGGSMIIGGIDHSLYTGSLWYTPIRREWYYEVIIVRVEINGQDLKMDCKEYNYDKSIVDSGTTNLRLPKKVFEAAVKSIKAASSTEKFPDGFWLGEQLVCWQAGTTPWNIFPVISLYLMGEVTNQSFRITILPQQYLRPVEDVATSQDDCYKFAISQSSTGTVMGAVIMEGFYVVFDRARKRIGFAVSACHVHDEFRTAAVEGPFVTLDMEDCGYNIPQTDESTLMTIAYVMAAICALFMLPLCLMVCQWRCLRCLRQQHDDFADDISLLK

concentration at 3 h ([2]; Brain, 10 mg/kg p.o.)	concentration at 3 h ([2]; Brain, 30 mg/kg p.o.)	concentration at 3 h ([2]; Plasma, 10 mg/kg p.o.)	concentration at 3 h ([2]; Plasma, 30 mg/kg p.o.)	Kp at 3 h ([2]; 10 mg/kg p.o.)	Kp at 3 h ([2]; 30 mg/kg p.o.)	efflux ratio at 60 min, 0.5 μM [3]	inhibition at 10 µM [4]	Structure (SMILES)	Aβ40 reduction ([1]; Brain, 10 mg/kg p.o.)	Aβ40 reduction ([1]; Brain, 30 mg/kg p.o.)	Aβ40 reduction ([1]; Plasma, 10 mg/kg p.o.)	Aβ40 reduction ([1]; Plasma, 30 mg/kg p.o.)
93 ng/g	479 ng/g	88 ng/g	239 ng/g	1.05	2.01	0.94	104%	COc1cnc(C(=O)Nc2ccc(F)c([C@]34COC[C@@]3(F)C[C@@](C)(F)C(N)=N4)c2)cn1 [Example 7, N-(3-((3R,4aR,7aS)-2-amino-3,4a-difluoro-3-methyl-3,4,4a,5,7,7a-hexahydrofuro[3,4-b]pyridin-7a-yl)-4-fluorophenyl)-5-methoxypyrazine-2-carboxamide]	48%	64%	42%	50%
153 ng/g	776 ng/g	399 ng/g	1830 ng/g	0.38	0.42	1.85	99%	[2H]C([2H])([2H])Oc1ccc(C(=O)Nc2ccc(F)c([C@]34COC[C@H]3C[C@@](F)(CF)C(N)=N4)c2)nc1 [Example 22, N-(3-((3S,4aS,7aS)-2-amino-3-fluoro-3-(fluoromethyl)-3,4,4a,5-tetrahydrofuro[3,4-b]pyridin-7a-yl)-4-fluorophenyl)-5-(methoxy-d3)picolinamide]	23%	48%	33%	43%
